Columns and labels:
[1] = physchem; settings: water, thermodynamic from solid
Procedure: This was subjected to ultrasonication on a water bath for 10 min, and gently shaken in a twin mixer (TM-282, AS ONE Corporation) at room temperature for 1 hr. After shaking, the mixture was centrifuged by a portable ultracentrifuge (10000 rpm×10 min., MC-150, TOMY SEIKO CO., LTD.) and the supernatant was filtered (Millex-LH, Millipore Corporation).

[2] = Hygroscopicity comparison test (adsorption isotherm curve measurement); format: physicochemical; settings: 0-95% RH, 25° C.
Procedure: An adsorption isotherm curve measurement was performed under the following conditions.
apparatus: DVS-1 (sms Ltd., UK)
measurement temperature: 25° C.
measurement operation: a sample was measured in a sample cup, sample weight was measured by successively changing the relative humidity at 50→0→95→0→50% RH.
The smaller weight change due to humidity is an important factor for the management of charge amount of the bulk drug for pharmaceutical products.

[3] = Chemical stability comparison test (one month preservation, purity by HPLC); format: physicochemical
Procedure: The sample after preservation was measured for chemical purity by HPLC. The HPLC conditions are shown below. • apparatus: SHIMADZU Corporation • column: Inertsil ODS-3V (GL Sciences Inc.) inner diameter 4.6 mm and length 150 mm • column oven: 40° C. • detection wavelength: 234 nm • measurement operation: a sample (about 1 mg) was measured in a vial container for HPLC, dissolved in a mixture (1 mL) of water/acetonitrile=1:1, and analyzed under the following conditions. • eluent composition: SOLUTION A 0.1% trifluoroacetic acid/water • SOLUTION B 0.1% trifluoroacetic acid/acetonitrile • gradient: SOLUTION B concentration: 5→100% (60 min) • mobile phase flow rate: 1.0 mL/min • injection volume: 5 μL
An increase rate of related substances after one month preservation was determined from the peak area in the HPLC chromatogram.

[4] = preserved one month at 40° C. 75% RH

Compound	solubility [1] [mg/mL]	moisture absorption [2]	moisture absorption, corresponding hydrated water [2] [hydrated water]	Increase rate of related substances (%) ([3]; preserved one month at 30° C.)	Increase rate of related substances (%) ([3]; preserved one month at 40° C.)	Increase rate of related substances (%) [3, 4]	Increase rate of related substances (%) ([3]; preserved one month at 50° C.)
Cc1cccc2c(=O)[nH]c(CCN3CCC[C@@H]3CO)cc12.Cl.O.O [monohydrochloride dihydrate, (R)-3-[2-(2-hydroxymethylpyrrolidin-1-yl)ethyl]-5-methyl-2H-isoquinolin-1-one monohydrochloride dihydrate]	45	11 % (w/w)	2	–	–	–	–
Cc1cccc2c(=O)[nH]c(CCN3CCC[C@@H]3CO)cc12 [free form, (R)-3-[2-(2-hydroxymethylpyrrolidin-1-yl)ethyl]-5-methyl-2H-isoquinolin-1-one]	≤ 1	–	–	+0.16%	+0.18%	+0.28%	+1.30%
anhydrous (R)-3-[2-(2-hydroxymethylpyrrolidin-1-yl)ethyl]-5-methyl-2H-isoquinolin-1-one monophosphate	–	0.5 % (w/w)	0.1	−0.01%	−0.01%	−0.02%	−0.01%
